Assay results: patent publication US20070244056A1 (priority 2004, published 2007)

Key:
[1] = test system: human patients afflicted with an unspecified form of multiple sclerosis; details: administered alone; data of WO 00/74676; cited from earlier work
[2] = test system: Transgenic mice overexpressing human Cu/Zn-SOD G93A mutations; test: Experimental model for amyotrophic lateral sclerosis (SOD1 G93A transgenic mice); type: in vivo; details: glatiramer acetate at both dosages; riluzole 30 mg/kg per day; during the course of treatment
Protocol: Transgenic mice overexpressing human Cu/Zn-SOD G93A mutations ((B6SJL-TgN (SOD1-G93A) 1 Gur) and non-transgenic B6/SJL mice are purchased from Jackson Laboratories (Bar Harbor, Me., USA). The second generation of G1H mice are used.
A group of 15 mice serve as controls.
The drugs are administered in drinking water starting at 60 days of age.
The clinical condition of the mice is monitored daily starting at 40 days. The onset of clinical signs is scored by examining the mice for tremors and/or shaking of the limbs, the position of one or both hind limbs (hanging rather than splaying out) when the mice are suspended in the air by their tail. The age of clinical onset was determined by the age (days) at which loss of splay or tremors of hind limbs is observed. The loss of righting reflex determines the end stage of the disease. The mice are sacrificed if they could not right themselves within 30 seconds when placed on either side on a flat surface.
Mice are observed daily (including weekends) and weighed weekly. Motor performance is assessed from 40 days of age using the rotarod apparatus to measure the night activity of the mice from 8 p.m.-8 a.m.
Mice were perfused transcardially with 4% paraformaldehyde/0.9% NaCl solution, brains and whole spinal cord were dissected out, frozen in liquid nitrogen and cut in transverse sections of 20 μm on a sliding microtome. […]

multiple sclerosis (MS) = details: daily subcutaneous injections, 20 mg/injection; cited from earlier work

Molecule	EDSS score [1]	accumulation of hypointense lesions [1]	running wheel activity (motor activity) [2]	appearance of "black holes" (multiple sclerosis (MS))	appearance of new lesions by magnetic resonance imaging (MRI) (multiple sclerosis (MS))	progression of disability (multiple sclerosis (MS))	relapse rates (multiple sclerosis (MS))
Nc1nc2ccc(OC(F)(F)F)cc2s1 [riluzole, 2-amino-6-trifluoromethoxy benzothiazole]	No effect	showed a trend toward reduction	more active during the course of treatment and maintain their motor activity longer than controls				
L-glutamic acid polymer with L-alanine, L-lysine and L-tyrosine, acetate (salt) [glatiramer acetate]			more active during the course of treatment and maintain their motor activity longer than controls	reduce	reduce	reduce	reduce
